Data published in PubChem BioAssay AID1996.
≈ marks a conversion by molar mass, not a printed value.

Details: buffer; pH 7.4; 200.0 µM

| SMILES | solubility kinetic |
| --- | --- |
| O=C(NC1CC1)C1CC(=O)N(c2ccccc2)C1 (stereo not given) | > 36.6 µg/mL |
| OCc1cc(-c2ccc(Cl)c(Cl)c2)on1 | > 36.6 µg/mL |
| CCOC(=O)NC(=S)Nc1ccc(C(C)(C)C)cc1 | 1.1 µg/mL (≈ 3.92 µM) |
| Nc1nc(-c2cc3ccccc3o2)cs1 | 3.3 µg/mL (≈ 15.3 µM) |
| COC(=O)c1ccc(CSc2nc(C(F)F)cc(C)c2C#N)o1 | 8.3 µg/mL (≈ 24.5 µM) |
| COc1ccc([N+](=O)[O-])cc1NS(=O)(=O)c1cccc(C(=O)NCCCN2CCCC2=O)c1 | > 71.5 µg/mL |
| CN(C)C(=O)CSc1nc2cc(S(=O)(=O)N3CCOCC3)ccc2o1 | > 57.8 µg/mL |
| COc1ccc2c(CC(=O)OCC(=O)NC(N)=O)coc2c1 | 18.1 µg/mL (≈ 59.1 µM) |
| Cc1ccc(S(=O)(=O)Nc2ccc(O)c3cccnc23)cc1 | 19 µg/mL (≈ 60.4 µM) |
| O=c1c2ccccc2ncn1-c1ccc([N+](=O)[O-])cc1[N+](=O)[O-] | 2.7 µg/mL (≈ 8.65 µM) |
| Cc1ccc2nc3c(c(Nc4ccccc4)c2c1)CCC3.Cl | 35 µg/mL |
| CN1C(=O)C(CCC(=O)O)NC1=S (stereo not given) | 28.2 µg/mL (≈ 139 µM) |
| O=C(CN1CCCCC1)c1c[nH]c2ccccc12 | > 36.3 µg/mL |
| CCC1CCCCN1C(=O)c1cc(S(=O)(=O)N2CCOCC2)ccc1C (stereo not given) | > 57.1 µg/mL |
| COCCNC(=O)C(=O)Nc1ccc(Cl)cc1C | > 40.6 µg/mL |
| CCN1CCC(N2CCN(c3ccccc3OC)CC2)CC1 | > 45.5 µg/mL |
| CC(C)c1ccc(NC(=O)NCc2cccnc2)cc1 | > 40.4 µg/mL |
| COc1cccc(C=O)c1OCCN1C(=O)c2ccccc2C1=O | 42.6 µg/mL (≈ 131 µM) |
| O=C(O)COc1ccc(NC(=O)C(c2ccccc2)c2ccccc2)cc1 | > 54.2 µg/mL |
| O=C(COC(=O)c1ccccc1Br)Nc1ccccc1F | 5.4 µg/mL (≈ 15.3 µM) |

| SMILES | solubility kinetic |
| --- | --- |
| CC(=O)N/C(=C\c1ccccc1)C(=O)OCC(=O)N(C)C1CCS(=O)(=O)C1 (stereo not given) | > 59.2 µg/mL |
| O=c1cc(C(F)(F)F)nc(SCc2cccnc2)[nH]1 | > 43.1 µg/mL |
| CN1CN(c2cccc([N+](=O)[O-])c2)CN=C1N[N+](=O)[O-] | > 42 µg/mL |
| C=C(C)COc1ccc(-c2nc(N)ncc2-c2ccc(Cl)cc2)c(O)c1 | 1.9 µg/mL (≈ 5.17 µM) |
| CCn1c2ccccc2c2cc(NC(=O)c3ccc(=O)oc3)ccc21 | 1.2 µg/mL (≈ 3.61 µM) |
| O=C(COC(=O)c1ccc(S(=O)(=O)N2CCOCC2)cc1)NCc1ccccc1 | 8.6 µg/mL (≈ 20.6 µM) |
| O=C(Nc1ccccc1C(=O)Nc1ccccc1)c1ccccc1F | < 0.4 µg/mL |
| Cc1ccc(S(=O)(=O)CCC(=O)NC2CCCC2)cc1 | > 44.3 µg/mL |
| Nc1cc(=O)[nH]c(SCC(=O)Nc2cccc(S(=O)(=O)N3CCCCC3)c2)n1 | > 63.5 µg/mL |
| Cc1ccc(C(=O)NCCCNC(=O)c2ccco2)cc1 | > 42.9 µg/mL |
| Clc1ccccc1-c1ncc(-c2ccccc2)o1 | < 0.5 µg/mL |
| O=C(O)CC1(CC(=O)NCc2ccc(-c3cccs3)cc2)CCCCC1 | 43.3 µg/mL (≈ 117 µM) |
| COc1ccccc1CNC(=O)COC(=O)c1ccccn1 | > 45 µg/mL |
| CCn1c(SCC(=O)N2CCOCC2)nnc1-c1ccco1 | > 48.4 µg/mL |
| Cc1ccc(N2C(=O)CCC2(C#N)c2ccccc2)cc1 (stereo not given) | > 41.5 µg/mL |
| CCc1nc(NCCO)c(C#N)c2c1CSC(C)(C)C2 | 41.2 µg/mL (≈ 141 µM) |
| O=C(O)/C=C/C(=O)NCCCc1ccccc1 | 19.8 µg/mL (≈ 84.9 µM) |
| CCC(=O)c1ccc(OCC(=O)OCC(=O)Nc2ccc3c(c2)OCCO3)cc1 | 18.8 µg/mL (≈ 47.1 µM) |
| CNS(=O)(=O)c1ccc2c3c(cccc13)C(=O)N2 | 27.7 µg/mL (≈ 106 µM) |
| O=C(Nc1ccc2c(c1)C(=O)OC2)c1ccccc1Cl | 41 µg/mL (≈ 143 µM) |

| SMILES | solubility kinetic |
| --- | --- |
| Cc1cccc(OCCn2ccnc2)c1C | 22.7 µg/mL (≈ 105 µM) |
| CCOC(=O)c1c(C)oc2c1c(C=NCCC(=O)O)c(O)c1ccccc12 | < 0.8 µg/mL |
| COc1ccc(N2CC(C(=O)N3CCCC(C)C3)CC2=O)cc1 (stereo not given) | > 47.5 µg/mL |
| CS(=O)(=O)Nc1ccc(Oc2ncccn2)cc1 | > 39.8 µg/mL |
| CN(CCC#N)C(=O)CC(Cc1ccccc1)C1CCOC(C)(C)C1 (stereo not given) | > 51.4 µg/mL |
| COC(=O)c1ccc(-c2ncc[nH]2)cc1 | > 30.3 µg/mL |
| N#Cc1c(-c2ccc(F)cc2)c2c([nH]c1=O)-c1ccccc1OC2 | 1.2 µg/mL (≈ 3.77 µM) |
| Cc1ccc(NC(=O)COC(=O)CC2CC3CCC2C3)cc1S(=O)(=O)N1CCOCC1 (stereo not given) | 10.2 µg/mL (≈ 22.6 µM) |
| O=C(OCC(=O)N1CCc2ccccc2C1)c1cccs1 | 36.8 µg/mL (≈ 122 µM) |
| Cc1cc(C(C)(C)C)ccc1NC(=O)CC(C)(C)CC(=O)O | > 45.8 µg/mL |
| CC(=O)Nc1ccc(NC(=O)c2ccc(-c3ccccc3Cl)o2)cc1 | 0.5 µg/mL (≈ 1.41 µM) |
| CCn1cc(S(=O)(=O)Nc2cc(C(=O)OC)ccc2C)cn1 | > 48.5 µg/mL |
| Cc1ccc(/C=C/C(=O)Oc2ccc(C#N)cc2)o1 | < 0.5 µg/mL |
| COCCn1c(C)cc(C(=O)COc2cccnc2[N+](=O)[O-])c1C | 49.7 µg/mL (≈ 149 µM) |
| Cc1c(Cl)cccc1NC(=S)NCC(O)c1ccccc1 (stereo not given) | 46.7 µg/mL (≈ 146 µM) |
| CC(C)(C)c1ccc(C(=O)Nc2cccnc2)cc1 | 28 µg/mL (≈ 110 µM) |
| O=C(Nc1ccc(CN2CCS(=O)(=O)CC2)cc1)c1ccccc1 | 31.4 µg/mL (≈ 91.2 µM) |
| CC(C#N)Sc1ccc(S(=O)(=O)N2CCCC2)cn1 (stereo not given) | 37.7 µg/mL (≈ 127 µM) |
| O=C(CCl)Nc1nccs1 | > 26.5 µg/mL |
| CCOc1ccccc1C(=O)NC(C(=O)Nc1cccnc1)C(C)C (stereo not given) | 33.7 µg/mL (≈ 98.7 µM) |
